Experimental findings from US20230321043A1, “COMPOUNDS HAVING PSEUDOMONAS ANTI-BIOFILM PROPERTIES” (Københavns Universitet, priority 2020, published 2023) are described below.

Data set [1] in a line: solubility in aqueous media. The note with it: aqueous media.
Data set [2] deals with P. aeruginosa biofilm on urinary tract catheters. Nature of the data set: catheter associated urinary tract infection model in mice. The class given is in vivo. Here is the method: Silicone catheters (5 mm long, 0.64 mm OD×0.3 mm ID) incubated with P. aeruginosa cultures (OD 1) for 22 hours to allow bacterial adhesion and subsequent coating. Mice then had the catheters inserted in the bladder and biofilm developed on the catheters for 24 hours. […] At 48 hours post-insertion the mice were euthanized, and the bacterial contents as CFU per implant were determined. Two experiments were pooled, and the median CFU per implant for the placebo group was set to 100. Horizontal lines indicate median CFU for each group. Each symbol represents a mouse. IP administered doses: H6 P1: 2×13 mg/Kg BW, CIP: 2×1 mg/Kg BW.
Silicone catheters (5 mm long, 0.64 mm OD×0.3 mm ID) incubated with P. aeruginosa cultures (OD 1) for 22 hours to allow bacterial adhesion and subsequent coating. Mice then had the catheters inserted in the bladder and biofilm developed on the catheters for 24 hours. […] At 48 hours post-insertion the mice were euthanized, and the bacterial contents as CFU per implant were determined. The median CFU per catheter for the control groups were set to 100. The median CFU per catheter for the placebo groups were 3×10^5 and 7×10^4. Horizontal lines indicate median CFU for each group. Each symbol represents one mouse. Orally administered doses: 2×13 mg/Kg BW, 2×3.3 mg/Kg BW. […]

Data set [3] has as its system P. aeruginosa biofilms on implants. Nature of the data set: P. aeruginosa-infected peritoneal implant model in mice. The class given is in vivo. The conditions noted are these: intraperitoneal. Here is the method:
Silicone implants (5 mm long, 6 mm OD×4 mm ID) were incubated with P. aeruginosa cultures (OD 0.1) for 20 hours to allow bacterial adhesion and subsequent coating. At time t=0, mice had the implants inserted in the peritoneal cavity and biofilm developed on the implants for 24 hours. (A) At 24 hours and 26 hours post-insertion of the implants (PI), the mice were treated with either H6-335-P1 (named “H6 P1” in FIG. 8) 25 μM (˜6 μg/g BW) in 0.2% cyclodextrin or 0.2% cyclodextrin, and at 26 hours PI with 30 μg per g BW tobramycin (TOB) or 0.9% NaCl. […] At 28 hours PI the mice were euthanized, and the bacterial contents as CFU per implant were determined. The median CFU per implant for the placebo group was set to 100. The median CFU per implant for the placebo groups were 8.5×10^6 (A) and 1.5×10^6 (B). Horizontal lines indicate median CFU for each group. Each symbol represents a mouse. Significance levels are based on Mann-Whitney U test (analysis of non-parametric data). IP administered doses: TOB: 30 mg/Kg BW, CIP: 10 mg/Kg BW, H6 P1: 2×6 mg/Kg BW.
The inventors first determined H6-335-P1 anti-biofilm efficacy in implant-harboring mice at low dosages (concentration) of 5 to 25 μM H6-335-P1 which corresponds to 1 to 5 μg H6-335-P1 per gram of body weight. […]

Data set [4] has as its system P. aeruginosa ΔbifAΔwspF mutant. Nature of the data set: biofilm formation of bifA knockout, crystal violet. The note with it: 100 μM, 16 hours of growth, FIG. 6B left. The class given is cell-based, Pseudomonas aeruginosa. Here is the method:
Biofilm quantification was done using a 96 well microtiter platform where 20 hour old cultures of the deletion mutant of P. aeruginosa PA01 (ΔwspF) and its isogenic bifA deletion mutant (ΔbifA-) were diluted […] into 100 μL ABTrace media aliquots (Pamp and Tolker-Nielsen, 2007) supplemented with 0.2% glucose, 0.5% casa amino acids, 1 μM FeCl3, 0.2% DMSO and either 100 μM or 0 μM of H6-335-P1. The resulting cultures were incubated at 37° C. and 160 RPM, and following 16 hours of growth the amounts of biofilm were quantified by the use of crystal violet staining.

Usually solubility stands for how much of the substance goes into solution per volume.

Where only a bound is given, the exact number is not on record here.

In the case of `N=C1NN=C(N)/C1=N/Nc1ccccc1F` [H6-335-P1, 4-[(2-fluorophenyl) hydrazinylidene]pyrazole-3,5-diamine], the solubility in data set [1] was under 2 µM. Besides, the “number of bacteria on the catheters, intraperitoneal administration” value in data set [2] (given as H6-335-P1:HCl 2×13 mg/Kg BW IP, with or without ciprofloxacin, FIG. 10A) is “reduced the number of bacteria on the catheters”. Further, the “biofilm mass on the catheters, oral administration” value in data set [2] (given as H6-335-P1:HCl in Nutella, as low as […] (3.3 mg/Kg BW), FIG. 10B) is listed as “significantly reduces the biofilm mass on the catheters”. The “biofilm bacteria dispersed from the implant” value in data set [3] (5 to 25 μM (1 to 5 μg per gram of body weight), four hours of exposure, not shown) is reported as “up to 90%”. Moreover, the “CFU on implants, combinatorial treatment followed by tobramycin or ciprofloxacin” value in data set [3] (FIG. 8) was “synergistic antimicrobial (lethal) effects”. For the same molecule, in data set [4], the “response of biofilm formation of ΔbifAΔwspF mutant” value is “no longer responded to the presence of H6-335-P1”.
